The subject of data set [1] is U87 spheroids. Description: WST-1 metabolic activity of U87 spheroids under drug or DMSO treatment. It counts as cell-based.
Description: (§1) The spheroids were subjected to drug testing at varying concentrations, with DMSO serving as a solvent control. This experimental approach aimed to dissect the impact of both DMSO and drug compounds on the metabolic activity and viability of U87 spheroids.
(§2) Control tests were first conducted with DMSO at concentrations of 1%, 2.5%, 5%, 10%, and 20% (v/v) to assess its cytotoxic effects independently of drug action. The metabolic activity of the spheroids was monitored at 0, 6, 12, 24, and 48 hours, followed by a live/dead assay at 48 hours to assess cell viability.
(§3) Spheroid metabolic activity was measured at 6, 12, 24, and 48 hours using the WST-1 assay, and viability was assessed at 48 hours via the live/dead assay.
The next data set is described as follows: in vitro. The settings on record: human.
In data set [2] the test system is U87 spheroids. Put plainly: live/dead viability assay of U87 spheroids at 48 hours.
Description: as §1, §2, §3

Some results are limits rather than exact numbers.

Description for in vitro: as §1, §2, §3

With `N.N.[Cl][Pt][Cl]` [Cisplatin], the “response at higher doses” value in the data set with U87 spheroids [1] (cryopreserved spheroids, 10 μM and above) is listed as “delayed response”. Further, the metabolic activity result with U87 spheroids [1] (cryopreserved spheroids, doses as low as 0.1 μM) is “metabolic activity decreasing”; with U87 spheroids [1] (normally grown spheroids, doses ≥10 μM) it was “significantly reduced metabolic activity”.
In general, viability refers to a per cent measure of how many cells are alive, often set against a control. A lower viability goes with a greater loss of cells. Turning to `C[S+](C)[O-]` [DMSO, dimethyl sulfoxide], in the data set on U87 spheroids [1] (cryopreserved spheroids, 10% and 20% DMSO), the metabolic activity result is recorded as “declining sharply”. Besides, the metabolic activity entry in the data set with U87 spheroids [1] (normally grown spheroids, 1% DMSO (v/v), over 48 hours) is “linear increase in metabolic activity”. Also, the metabolic activity entry in the data set with U87 spheroids [1] (normally grown spheroids, higher concentrations (5%, 10%, 20% DMSO)) is “temporary reductions in metabolic activity at the 6-hour mark, followed by partial recovery”. For the same compound, in “in vitro”, the viability at 48 h, 1 % (v/v) is over 99%; the viability at 48 h, 5 % (v/v) is over 99%; the viability at 48 h, 10 % (v/v) is under 50%; the viability at 48 h, 20 % (v/v) turned out to be 5%. The cell viability result in the data set on U87 spheroids [2] (10% and 20% DMSO, particularly in cryopreserved samples) is “viability decreased”.
As to `Cn1nnc2c(C(N)=O)ncn2c1=O` [TMZ], in the data set with U87 spheroids [1] (cryopreserved spheroids, comparable doses), the “metabolic activity and viability compared to normally grown spheroids” value is “slightly higher metabolic activity and viability”. For the same compound, in the data set with U87 spheroids [1] (cryopreserved spheroids, more substantial reductions at 400 μM and 800 μM), the response timing entry is listed as “slightly delayed responses”. Moreover, the metabolic activity result in the data set with U87 spheroids [1] (doses ≥100 μM, both normal and cryopreserved spheroids) was “metabolic activity was suppressed”. For the same compound, the viability entry with U87 spheroids [2] (400 μM) and in the data set with U87 spheroids [2] (800 μM) was “below 30%” each time.
